Calls of active or inactive are those of the source. The calls are words filed in the database; no cut-off is given here.
Legend:
[1] = tested on: Plasmodium falciparum; test: Antiplasmodial activity against ring stage Plasmodium falciparum 3D7A infected in erythrocytes incubated for 24 hrs prior to [3H]hypoxanthine incorporation measured after 24 hrs; assay type: functional, organism-based
[2] = Inhibition of beta-hematin formation
[3] = tested on: Plasmodium berghei; test: Antiplasmodial activity against Plasmodium berghei infected in po dosed mouse assessed as reduction in parasitemia administered qd for 2 days relative to vehicle-treated control; assay type: functional
[4] = Inhibition of beta-hematin formation up to 100 uM

Row | Compound | IC50 ([1]; Plasmodium falciparum, 3D7A) [nM] | further results
1 | C[C@H](NC1CCCCC1)[C@@H](O)c1ccc(C(F)(F)F)cc1 (relative stereo) | 5000 | 
2 | O[C@@H](c1cc(C(F)(F)F)nc2c(C(F)(F)F)cccc12)[C@H]1CCCCN1 (relative stereo) [(S,R)-MEFLOQUINE] |  | IC50 [2]: 12.2 µM
3 | CCC(C)(C)N[C@@H](C)[C@H](O)c1ccc(Cl)c(Cl)c1 (racemic) | 3900 | 
4 | OC(CNC1CCCCCCC1)c1ccc(Cl)c(Cl)c1 (racemic) | 70 | 
5 | CC(C)(C)NCC(O)c1ccc(Cl)c(Cl)c1 (racemic) | > 5000 | 
6 | CCC(C)(C)N[C@H](C)[C@H](O)c1ccc(C(F)(F)F)cc1 | 500 | 
7 | CCC(C)(C)N[C@@H](C)[C@H](O)c1ccc(C(F)(F)F)cc1 (racemic) | > 5000 | 
8 | C[C@H](NC(C)(C)C)[C@@H](O)c1ccc(Cl)c(Cl)c1 (racemic) | 900 | 
9 | C[C@H](NC(C)(C)C)[C@@H](O)c1ccc(Cl)c(C(F)(F)F)c1 |  | IC50 [1]: 600 nM
10 | C[C@H](NC(C)(C)C)[C@H](O)c1ccc(Cl)c(Cl)c1 (racemic) | > 5000 | 
11 | CCC(C)(C)N[C@@H](C)[C@@H](O)c1ccc(Cl)c(Cl)c1 (racemic) |  | IC50 [1]: 200 nM
12 | OC(CNCc1ccccc1)c1ccc(Cl)c(Cl)c1 (racemic) | 700 | 
13 | OC(CNC1CCCCC1)c1ccc(Cl)c(Cl)c1 (racemic) | 720 | 
14 | CCC(C)(C)N[C@@H](C)[C@@H](O)c1ccc(C(F)(F)F)cc1 |  | IC50 [1]: 1400 nM
15 | CC(NC(C)(C)C)C(O)c1ccccc1 (racemic) | > 5000 | 
16 | CCC(C)(C)N[C@@H](C)[C@@H](O)c1ccc(C(F)(F)F)cc1 (racemic) [listing 1 of 2 here] |  | inhibition (INH) [3]: 64%; IC50 [1]: 400 nM
17 | C[C@H](Nc1ccccc1)[C@@H](O)c1ccc(C(F)(F)F)cc1 (relative stereo) | 5000 | 
18 | C[C@H](NC(C)(C)C)[C@@H](O)c1ccc(Cl)c(C(F)(F)F)c1 (racemic) [listing 1 of 2 here] | 500 | inhibition (INH) [3]: 76%
19 | C[C@H](N)[C@@H](O)c1ccc(C(F)(F)F)cc1 (relative stereo) | > 5000 | 
20 | CCC(C)(C)N(C)[C@@H](C)[C@@H](O)c1ccc(C(F)(F)F)cc1 (relative stereo) | > 5000 | 
21 | C[C@@H](NC(C)(C)C)[C@H](O)c1ccc(Cl)c(C(F)(F)F)c1 | 300 | 
22 | CCC(C)(C)N[C@@H](C)[C@@H](O)c1ccc(C(F)(F)F)cc1 (racemic) [listing 2 of 2 here] |  | inhibition [4]: inactive
23 | OC(CNC1CCCCCC1)c1ccc(Cl)c(Cl)c1 (racemic) | 160 | 
24 | CCC(C)(C)N[C@H](C)[C@H](O)c1ccc(Cl)c(Cl)c1 | 400 | 
25 | Cc1ccc2ccccc2c1CNCC(O)c1ccc(Cl)c(Cl)c1 (racemic) | > 5000 | 
26 | C[C@H](NC(C)(C)C)[C@@H](O)c1ccc(Cl)c(C(F)(F)F)c1 (racemic) [listing 2 of 2 here] |  | inhibition [4]: inactive
27 | CC(NC(C)(C)C)C(O)c1ccc(Cl)c(C(F)(F)F)c1 (racemic) | 4300 | 
28 | CCC(C)(C)N[C@@H](C)[C@@H](O)c1ccc(Cl)c(Cl)c1 |  | IC50 [1]: 500 nM
